Measured values published in patent US12708630B2, “Combined therapy of 4′-thio-5-aza-2′-deoxycytidine and Venetoclax” (PINOTBIO, INC., priority 2021, dated 2026).
pIC50: −log10 of the molar value.

Experiments:
Experiment in all cases: drug activity profiling cytotoxicity
Assay type in all cases: cell-based
[1] = system: NU-DUL-1; conditions: Homo sapiens; NU-DUL-1 cell line, B-cell lymphoma; read-out: Aza-T-dCyd IC50
Outline: (§1)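 Aza-T-dCyd cytotoxicity was assessed by drug activity profiling across a panel of 200 cell lines, aimed at identifying a response biomarker.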

[2] = system: J82; conditions: Homo sapiens; J82 cell line, Bladder; read-out: Aza-T-dCyd IC50
Outline: as §1

[3] = system: HPAF-II; conditions: Homo sapiens; HPAF-II cell line, Pancreas; read-out: Aza-T-dCyd IC50
Outline: as §1

[4] = system: Caki-1; conditions: Homo sapiens; Caki-1 cell line, Kidney; read-out: Aza-T-dCyd IC50
Outline: as §1

[5] = system: SCC-25; conditions: Homo sapiens; SCC-25 cell line, Head and Neck; read-out: Aza-T-dCyd IC50
Outline: as §1

[6] = system: MHH-PREB-1; conditions: Homo sapiens; MHH-PREB-1 cell line, B-cell lymphoma; read-out: Aza-T-dCyd IC50
Outline: as §1

[7] = system: SU-DHL-4; conditions: Homo sapiens; SU-DHL-4 cell line, B-cell lymphoma; read-out: Aza-T-dCyd IC50
Outline: as §1

[8] = system: BxPC-3; conditions: Homo sapiens; BxPC-3 cell line, Pancreas; read-out: Aza-T-dCyd IC50
Outline: as §1

[9] = system: Hs 746T; conditions: Homo sapiens, Hs746T; Hs 746T cell line, Stomach; read-out: Aza-T-dCyd IC50
Outline: as §1

[10] = system: BV-173; conditions: Homo sapiens; BV-173 cell line, CML; read-out: Aza-T-dCyd IC50
Outline: as §1

[11] = system: A431; conditions: Homo sapiens, A-431; A431 cell line, Skin (Head and Neck); read-out: Aza-T-dCyd IC50
Outline: as §1

[12] = system: DLD-1; conditions: Homo sapiens; DLD-1 cell line, Colon; read-out: Aza-T-dCyd IC50
Outline: as §1

[13] = system: C32TG; conditions: C32TG cell line, Skin (Melanoma); read-out: Aza-T-dCyd IC50
Outline: as §1

[14] = system: H9; conditions: Homo sapiens; H9 cell line, T-cell Lymphoma; read-out: Aza-T-dCyd IC50
Outline: as §1

[15] = system: MV-4-11; conditions: Homo sapiens, MV4-11; MV-4-11 cell line, AML; read-out: Aza-T-dCyd IC50
Outline: as §1

[16] = system: Raji; conditions: Homo sapiens; Raji cell line, Burkitt's lymphoma; read-out: Aza-T-dCyd IC50
Outline: as §1

[17] = system: JeKo-1; conditions: Homo sapiens; JeKo-1 cell line, B-cell lymphoma; read-out: Aza-T-dCyd IC50
Outline: as §1

[18] = system: DMS273; conditions: Homo sapiens, DMS-273; DMS273 cell line, Lung (SCLC); read-out: Aza-T-dCyd IC50
Outline: as §1

[19] = system: SNB-19; conditions: Homo sapiens; SNB-19 cell line, CNS (Glioma); read-out: Aza-T-dCyd IC50
Outline: as §1

[20] = system: BC-1; conditions: Homo sapiens, BC1; BC-1 cell line, B-cell lymphoma; read-out: Aza-T-dCyd IC50
Outline: as §1

[21] = system: BT20; conditions: Homo sapiens, BT-20; BT20 cell line, Breast; read-out: Aza-T-dCyd IC50
Outline: as §1

[22] = system: CGTH-W-1; conditions: Homo sapiens; CGTH-W-1 cell line, Endocrine (Thyroid); read-out: Aza-T-dCyd IC50
Outline: as §1

[23] = system: HT; conditions: Homo sapiens; HT cell line, B-cell lymphoma; read-out: Aza-T-dCyd IC50
Outline: as §1

[24] = system: HCT-116; conditions: Homo sapiens; HCT-116 cell line, Colon; read-out: Aza-T-dCyd IC50
Outline: as §1

[25] = system: AU565; conditions: Homo sapiens; AU565 cell line, Breast; read-out: Aza-T-dCyd IC50
Outline: as §1

[26] = system: C32; conditions: Homo sapiens; C32 cell line, Skin (Melanoma); read-out: Aza-T-dCyd IC50
Outline: as §1

[27] = system: Colo 320DM; conditions: Homo sapiens; Colo 320DM cell line, Colon; read-out: Aza-T-dCyd IC50
Outline: as §1

[28] = system: DMS53; conditions: Homo sapiens, DMS-53; DMS53 cell line, Lung (SCLC); read-out: Aza-T-dCyd IC50
Outline: as §1

[29] = system: COR-L105; conditions: Homo sapiens; COR-L105 cell line, Lung (NSCLC); read-out: Aza-T-dCyd IC50
Outline: as §1

[30] = system: SU.86.86; conditions: Homo sapiens; SU.86.86 cell line, Pancreas; read-out: Aza-T-dCyd IC50
Outline: as §1

[31] = system: U-87 MG; conditions: Homo sapiens; U-87 MG cell line, CNS (Glioma); read-out: Aza-T-dCyd IC50
Outline: as §1

Nc1ncn([C@H]2CC(O)[C@@H](CO)S2)c(=O)n1 (stereo partly shown) [Aza-T-dCyd, 4′-thio-5-aza-2′-deoxycytidine]
pIC50 [1]: 7.61 | pIC50 [2]: 5.70 | pIC50 [3]: 6.13 | pIC50 [4]: 7.07 | pIC50 [5]: 6.90 | pIC50 [6]: 7.41 | pIC50 [7]: 7.76 | pIC50 [8]: 6.16 | pIC50 [9]: 6.18 | pIC50 [10]: 8.27 | pIC50 [11]: 6.59 | pIC50 [12]: 6.66 | pIC50 [13]: 6.02 | pIC50 [14]: 6.33 | pIC50 [15]: 6.74 | pIC50 [16]: 7.12 | pIC50 [17]: 7.41 | pIC50 [18]: 5.25 | pIC50 [19]: 6.77 | pIC50 [20]: 6.47 | pIC50 [21]: < 5.00 | pIC50 [22]: 6.84 | pIC50 [23]: 5.99 | pIC50 [24]: 7.00 | pIC50 [25]: < 5.00 | pIC50 [26]: < 5.00 | pIC50 [27]: 7.03 | pIC50 [28]: 5.37 | pIC50 [29]: 5.65 | pIC50 [30]: 6.29 | pIC50 [31]: 5.79
